Structures can show the parent of a compound that is named as a salt.
Columns and labels:
[1] = test system: Jurkat cells; assay: Jurkat cell adhesion system (adhesion to immobilized human fibronectin, PMA-stimulated); assay type: cell-based; details: concentration inhibiting by 50% the PMA-stimulated increase in adhered Jurkat cells on human fibronectin
Text: The “C1-6 haloalkyl” of Group A1 and Group A2 (mentioned below) is aforementioned “C1-6 alkyl” having 1-6 aforementioned “halogen” bonded thereto, as examples there may be mentioned straight-chain or branched-chain alkyl groups such as methyl, ethyl, n-propyl, isopropyl, n-butyl, isobutyl, s-butyl, t-butyl, pentyl, isopentyl, 2-methylbutyl, neopentyl, 1-ethylpropyl, hexyl, isohexyl, 4-methylpentyl, 3-methylpentyl, 2-methylpentyl, 1-methylpentyl, 3,3-dimethylbutyl, 2,2-dimethylbutyl, 1,1-dimethylbutyl, 1,2-dimethylbutyl, 1,3-dimethylbutyl, 2,3-dimethylbutyl, 1-ethylbutyl or 2-ethylbutyl, having fluorine or chlorine bonded thereto, among which C1-4 alkyl having 1 to 3 fluorine or chlorine bonded thereto is preferred, and trifluoromethyl is particularly preferred.
As examples of the “C2-7 alkylene”, where C2-7 alkylene is permissible only in the case that a spiro union is formed together with the substituted 5- to 10-membered cycloalkyl or the substituted 5- to 10-membered cycloalkenyl, of Group A1 and Group A2 (mentioned below), there may be mentioned straight-chain or branched-chain groups such as 1,2-ethylene, trimethylene, propylene, ethylethylene, tetramethylene, pentamethylene, hexamethylene or heptamethylene, among which 1,2-ethylene, trimethylene, tetramethylene or pentamethylene is preferred, and 1,2-ethylene, tetramethylene or pentamethylene is particularly preferred.
As examples of the “halogen” of Group W1 there may be mentioned the same ones listed above, among which fluorine or chlorine is preferred.
As examples of the “C1-6 alkyl” of Group W1 there may be mentioned the same ones listed above, among which C1-4 groups are preferred, and methyl or ethyl is particularly preferred.
The “C2-7 alkoxyalkyl” of Group W1 is aforementioned “C1-6 alkyl” having the aforementioned “C1-6 alkoxy” bonded thereto, of 2 to 7 carbon (total number of carbon), and as examples there may be mentioned methoxymethyl, methoxyethyl, ethoxyethyl, methoxypropyl or propoxyethyl, among which methoxymethyl is preferred.
As examples of the “C1-6 alkoxy” of the “C1-6 alkoxy optionally substituted with a substituent selected from Group T1” of Group W1 there may be mentioned the same ones listed above, among which C1-4 groups are preferred, and methoxy, ethoxy, isopropoxy or propoxy is particularly preferred.

[2] = test system: human peripheral blood neutrophils; assay: Human peripheral blood neutrophil adhesion system (adhesion to HUVEC immobilized plate, PMA-stimulated); assay type: cell-based; details: concentration inhibiting by 50% the PMA-stimulated increase in neutrophils adhered to HUVEC
Text: As examples of the “C2-7 alkylcarbonyl” of Group W1 there may be mentioned the same ones listed above, among which C2-5 groups are preferred, and acetyl is particularly preferred.
As examples of the “C1-6 alkyl” for R^6X and R^7X there may be mentioned the same ones listed above.
As examples of the “halogen” of Group C1 there may be mentioned the same ones listed above, among which bromine, fluorine or chlorine is preferred.
As examples of the “C1-6 alkyl” of Group C1 there may be mentioned the same ones listed above, among which C1-4 groups are preferred, and methyl is particularly preferred.
As examples of the “C1-6 alkoxy” of Group C1 there may be mentioned the same ones listed above, among which C1-4 groups are preferred, and methoxy or ethoxy is particularly preferred.
As examples of the “halogen” of Group D1 and Group D2 (mentioned below) there may be mentioned the same ones listed above, among which fluorine or chlorine is preferred.
As examples of the “C1-6 alkoxy” of Group D1 and Group D2 (mentioned below) there may be mentioned the same ones listed above, among which C1-4 groups are preferred, and methoxy or ethoxy is particularly preferred.
The “C1-6 alkylthio” of Group D1 is a thio group having the aforementioned “C1-6 alkyl” bonded thereto, and as examples there may be mentioned straight-chain or branched-chain groups such as methylthio, ethylthio, propylthio, isopropylthio, […], isobutylthio, s-butylthio, t-butylthio, pentylthio, isopentylthio, 2-methylbutylthio, neopentylthio, 1-ethylpropylthio, hexylthio, isohexylthio, 4-methylpentylthio, 3-methylpentylthio, 2-methylpentylthio, 1-methylpentylthio, 3,3-dimethylbutylthio, 2,2-dimethylbutylthio, 1,1-dimethylbutylthio, 1,2-dimethylbutylthio, 1,3-dimethylbutylthio, 2,3-dimethylbutylthio, 1-ethylbutylthio or 2-ethylbutylthio, among which C1-4 groups are preferred, and methylthio or ethylthio is particularly preferred.
As examples of the “C1-6 alkylsulfonyl” of Group D1 there may be mentioned the same ones listed above, among which C1-4 groups are preferred, and methylsulfonyl or ethylsulfonyl is particularly preferred.
The “C1-6 alkylsulfinyl” of Group D1 is a sulfinyl group having the aforementioned “C1-6 alkyl” bonded thereto, as examples there may be mentioned straight-chain or branched-chain groups such as methylsulfinyl, ethylsulfinyl, propylsulfinyl, isopropylsulfinyl, […], isobutylsulfinyl, s-butylsulfinyl, t-butylsulfinyl, pentylsulfinyl, isopentylsulfinyl, 2-methylbutylsulfinyl, neopentylsulfinyl, 1-ethylpropylsulfinyl, hexylsulfinyl, isohexylsulfinyl, 4-methylpentylsulfinyl, 3-methylpentylsulfinyl, 2-methylpentylsulfinyl, 1-methylpentylsulfinyl, 3,3-dimethylbutylsulfinyl, 2,2-dimethylbutylsulfinyl, 1,1-dimethylbutylsulfinyl, 1,2-dimethylbutylsulfinyl, 1,3-dimethylbutylsulfinyl, 2,3-dimethylbutylsulfinyl, 1-ethylbutylsulfinyl or 2-ethylbutylsulfinyl, among which C1-4 groups are preferred, and methylsulfinyl or ethylsulfinyl is particularly preferred.

[3] = test system: colon-infiltrating neutrophils (myeloperoxidase enzyme activity); assay: Oxazolone-induced colon neutrophil infiltration model (colon myeloperoxidase activity); assay type: in vivo; details: myeloperoxidase enzyme activity inhibitory rate vs oxazolone control group; 30 mg/kg orally 30 minutes prior to intrarectal challenge; colon 4 hours after challenge; male Balb/c mice
Text: The “di(C1-6 alkyl)amino” of Group D1 may be either symmetric or asymmetric, and as examples there may be mentioned straight-chain or branched-chain groups such as dimethylamino, methylethylamino, diethylamino, methylpropylamino, ethylpropylamino, dipropylamino, diisopropylamino, dibutylamino, diisobutylamino, di(s-butyl)amino, di(t-butyl)amino, methylpentylamino, dipentylamino, diisopentylamino, di(2-methylbutyl)amino, di(neopentyl)amino, di(1-ethylpropyl)amino, dihexylamino, methylisohexylamino, diisohexylamino, di(4-methylpentyl)amino, di(3-methylpentyl)amino, di(2-methylpentyl)amino, di(1-methylpentyl)amino, di(3,3-dimethylbutyl)amino, di(2,2-dimethylbutyl)amino, di(1,1-dimethylbutyl)amino, di(1,2-dimethylbutyl)amino, di(1,3-dimethylbutyl)amino, di(2,3-dimethylbutyl)amino, di(1-ethylbutyl)amino or di(2-ethylbutyl)amino, among which dimethylamino, methylethylamino or diethylamino is preferred, and dimethylamino is particularly preferred.
The “C2-7 alkylcarbonylamino” of Group D1 is an amino group having the aforementioned “C2-7 alkylcarbonyl” bonded thereto, and as examples there may be mentioned straight-chain or branched-chain groups such as acetylamino, ethylcarbonylamino, n-propylcarbonylamino, isopropylcarbonylamino, n-butylcarbonylamino, isobutylcarbonylamino, s-butylcarbonylamino, t-butylcarbonylamino, pentylcarbonylamino, isopentylcarbonylamino, 2-methylbutylcarbonylamino, neopentylcarbonylamino, 1-ethylpropylcarbonylamino, hexylcarbonylamino, isohexylcarbonylamino, 4-methylpentylcarbonylamino, 3-methylpentylcarbonylamino, 2-methylpentylcarbonylamino, 1-methylpentylcarbonylamino, 3,3-dimethylbutylcarbonylamino, 2,2-dimethylbutylcarbonylamino, 1,1-dimethylbutylcarbonylamino, 1,2-dimethylbutylcarbonylamino, 1,3-dimethylbutylcarbonylamino, 2,3-dimethylbutylcarbonylamino, 1-ethylbutylcarbonylamino or 2-ethylbutylcarbonylamino, among which amino groups having C2-5 alkylcarbonyl bonded thereto are preferred, and acetylamino or ethylcarbonylamino is particularly preferred.
As examples of the “3- to 8-membered cycloalkyl” of the “3- to 8-membered cycloalkyl optionally substituted with a substituent selected from Group H1” of Group D1 and the “3- to 8-membered cycloalkyl” of Group D2 (mentioned below) there may be mentioned the same ones listed above, among which cyclopropyl, cyclobutyl, cyclopentyl or cyclohexyl is preferred, cyclopropyl or cyclobutyl is more preferred, and cyclopropyl is most preferred.
As exampled of the “C2-7 alkoxycarbonyl” of Group D1 there may be mentioned the same ones listed above, among which methoxycarbonyl or ethoxycarbonyl is preferred. […]

Row | Compound | IC50 [1] [µM] | IC50 [2] [µM] | Ihibitory Rate (%) [3] [%]
1 | CCCCN1CCN(c2cc3c(cc2C2CCC(C(C)(C)C)CC2)N(C)C(=O)CO3)CC1 (centres unmarked) [Example 6, 6-(4-t-Butylcyclohexyl)-7-(4-butylpiperazin-1-yl)-4-methyl-4H-benzo[1,4]oxazin-3-one] | 2.9 | 11.7 | 48.0
2 | CCCCN1CCN(c2cc3c(cc2C2=CC(C)(C)CC(C)(C)C2)OCO3)CC1 [Example 13, 1-Butyl-4-[6-(3,3,5,5-tetramethylcyclohex-1-enyl)benzo [1,3]dioxol-5-yl]piperazine hydrochloride] | 3.8 | 21.7 | 
3 | CCCCN1CCN(c2ccc(N3CCC4(CC3)OCCO4)cc2C2CCC(C(C)(C)C)CC2)CC1.Cl (centres unmarked) [Example 134] |  |  | 18.0
4 | CCCCN1CCN(c2cc(OCCOC)ccc2C2CC(C)(C)CC(C)(C)C2)CC1 [Example 10, 1-Butyl-4-[5-(2-methoxyethoxy)-2-(3,3,5,5-tetramethylcyclohexyl)phenyl]piperazine hydrochloride] | 3.3 | 7.8 | 

Further molecules by falling IC50 [1], results first:

Row | IC50 [1] [µM] | IC50 [2] [µM] | Compound | Ihibitory Rate (%) [3] [%]
5 | 4.9 | 17.4 | CCCCN1CCN(c2cc3c(cc2C2CCC(C(C)(C)C)CC2)N(C)CCO3)CC1.Cl (centres unmarked) [Example 7, 6-(4-t-Butylcyclohexyl)-7-(4-butylpiperazin-1-yl)-4-methyl-3,4-dihydro-2H-benzo[1,4]oxazine hydrochloride] | 24.0
6 | 2.9 | 11 | CCCCN1CCN(c2c(NC3CCOCC3)cccc2C2=CCC(C(C)(C)C)CC2)CC1.Cl (racemic) [Example 5, [3-(4-t-Butylcyclohex-1-enyl)-2-(4-butylpiperazin-1-yl)phenyl](tetrahydropyran-4-yl)amine hydrochloride] | 3.0
